In EP0042596B1, “Novel adenine nucleoside derivatives, their preparation and pharmaceutical compositions containing them” (REGENTS OF THE UNIVERSITY OF MINNESOTA, priority 1980, dated 1981):
In brackets after ≈: the same amount, converted by molar mass.

Legend:
[1] = system: herpes simplex virus type 2; test: Genital herpes infection in female guinea pigs, suppression of lesion development (intravaginal agarose gel treatment); assay type: in vivo; conditions: for animals with lesions: 5% vidarabine formulation in 0.8% agarose gel
Procedure: The antiviral efficacy of these compounds in the treatment of genital infections in female guinea pigs was determined, the infecting virus being herpes simplex virus […]. The in vivo efficacy was measured in terms of the effect of these compounds in suppressing lesion development induced by the infecting virus. The incidence of lesions for virus-infected animals treated with the test compound was measured and compared with the results obtained for virus-infected control animals treated with placebo, or with the results obtained for untreated virus-infected animals. In the control group of animals small lesions usually appeared 3 to 4 days following infection, the virus-induced lesions reaching a maximum severity around 7 days postinfection this peak being followed by scab formation and then healing. In each case the test animals were infected by intravaginal inoculation with the herpes simplex virus type 2 in 0.1 ml of cell culture medium. 0.1 ml of a 0.8% agarose gel containing the test compound at the stated concentration was then administered intravaginally, treatment commencing (unless otherwise stated) 3 hours postinfection and the test compound being administered 3 times daily for 7 days. […] For the results given in Table 2, drug administration was commenced 6 hours postinfection and the test compound administered three times daily for 5 days.

[2] = Solubility in water at 37°C; assay type: physicochemical; conditions: at 37°C in water
[3] = i.p.

In the case of COCC(=O)OC[C@H]1C[C@@H](n2cnc3c(N)ncnc32)[C@@H](O)[C@@H]1O (racemic) [Compound B, 9-[2α,3β-dihydroxy-4α(methoxyacetoxymethyl)cyclopent-1 α-yl]adenine], the “animals developed virus-induced lesions” value ([1]; administration commenced 6 hours postinfection, three times daily for 5 days, controls 60-90%) is reported as 33%, the solubility [2] is reported as 75 mg/mL (≈ 222 mM) and the signs of toxicity ([3]; highest dose tested of 750 mg/kg) is reported as “no signs of toxicity at all”.
With Nc1ncnc2c1ncn2[C@@H]1C[C@H](CO)[C@@H](O)[C@@H]1O (racemic) [cyclaradine, 9 - [2α,3β-dihydroxy - 4α - (hydroxymethyl)cyclopent - 1 a - yl] - adenine] the “test animals had lesions” value ([1]; day 7 postinfection, concentration 3%) was 100%, the “test animals had lesions” value ([1]; day 7 postinfection, concentration 10%) was 100% and the solubility [2] was 1 mg/mL (≈ 3.77 mM). The lethality ([3]; dose of 900 mg/kg) was “not lethal”.
For COCC(=O)OC[C@H]1O[C@@H](n2cnc3c(N)ncnc32)[C@@H](O)[C@@H]1O [Compound A, 9-s-D-Arabinofuranosyladenine-5'-methoxyacetate], the lesion formation ([1]; concentration of 15% in 0.8% agarose gel, intravaginal, start 3 hours postinfection, 3 times daily for 7 days) was “completely suppressed lesion formation”.
Nc1ncnc2c1ncn2[C@@H]1O[C@H](CO)[C@@H](O)[C@@H]1O [vidarabine, 9-(β-D-arabinofuranosyl)-adenine] showed an animals with lesions ([1]; day 4 postinfection) of 50% and an animals with lesions ([1]; day 7 postinfection) of 80%.
